Earlier results as cited in patent US20240374689A1 (Longevity Biotech, Inc., priority 2010, published 2024).

Conditions: in humans

plasma half-life: 2 min
Substance: GLP-1
